From ChEMBL document CHEMBL3272108, “Analogues of sparteine. 5. Antiarrhythmic activity of selected N,N'-disubstituted bispidines” (J Med Chem, 1977)
Activity calls are given as the source filed them. The rule behind the calls is not given here.

What was measured:
[1] = test system: Mus musculus; experiment: Antiarrhythmic activity in ip dosed CF1 mouse by chloroform-fibrillation assay based ECG analysis; format: functional; conditions: CF1, Heart
[2] = Therapeutic index, ratio of LD50 for CF1 mouse to ED50 for antiarrhythmic activity in CF1 mouse; conditions: in vivo
[3] = Binding affinity to calcium nitrate in anhydrous dimethyl-d6-sulfoxide solvent by proton magnetic resonance analysis
[4] = Octanol-phosphate buffer apparent partition coefficient, log D of the compound at pH 7.4 by GLC analysis; format: physicochemical
[5] = Binding affinity to magnesium nitrate in anhydrous dimethyl-d6-sulfoxide solvent by proton magnetic resonance analysis
[6] = Acute toxicity in ip dosed CF1 mouse; conditions: in vivo
[7] = Binding affinity to magnesium salt in methanol-d4 solvent by proton magnetic resonance analysis
[8] = Binding affinity to calcium salt in methanol-d4 solvent by proton magnetic resonance analysis

Row | Structure (SMILES) | ED50 [1] [µmol/kg] | selectivity ratio [2] | Activity [3] | logD [4] | Activity [5] | LD50 [6] [µmol/kg] | Activity [7] | Activity [8]
1 | CCCCN1CC2CC(C1)CN(Cc1ccccc1)C2.Cl | 159 | 1.25 | inactive | -1.22 | inactive | 198 | – | –
2 | CC(C)C1C2CC(CN(C)C2)CN1C.Cl (stereo not given) | 191 | 1.46 | – | -3.4 | – | 279 | – | –
3 | CC(C)N(CCC(C(N)=O)(c1ccccc1)c1ccccn1)C(C)C (stereo not given) [DISOPYRAMIDE] | 60 | 8.4 | – | – | – | 504 | – | –
4 | CCCCN1CC2CC(C1)CN(CCCC)C2.Cl | 170 | 1.23 | – | -2.07 | – | 196 | – | –
5 | Br.CCCCN1CC2CC(CN(C)C2)C1 | 192 | 1.08 | – | -3.39 | – | 207 | – | –
6 | Cl.c1ccc(CN2CC3CC(C2)CN(Cc2ccccc2)C3)cc1 | 160 | 1.24 | inactive | -0.43 | inactive | 199 | – | –
7 | CN1CC2CC(C1)CN(C(c1ccccc1)c1ccccc1)C2.Cl | 259 | 0.87 | – | -0.43 | – | 225 | – | –
8 | CN1CC2CC(C1)CN(Cc1ccccc1)C2.CS(=O)(=O)O | 154 | 1.23 | – | -2.57 | – | 189 | Active | Active
9 | C1CCN2C[C@@H]3C[C@@H](CN4CCCC[C@@H]34)[C@H]2C1.O.O.O.O.O.O=S(=O)(O)O [SPARTEINE SULFATE] | 150 | 0.89 | inactive | -1.57 | inactive | 134 | Active | Active
